According to patent US10035799B2, “COMT inhibiting methods and compositions” (Lieber Institute for Brain Development, priority 2015, dated 2018):

Biological target: T1, catechol-O-methyltransferase (COMT) (Homo sapiens, UniProt P21964)
T1 construct: M51A variant) was expressed in HEK 293F cells
T1 sequence (P21964 52-271 limits assumed): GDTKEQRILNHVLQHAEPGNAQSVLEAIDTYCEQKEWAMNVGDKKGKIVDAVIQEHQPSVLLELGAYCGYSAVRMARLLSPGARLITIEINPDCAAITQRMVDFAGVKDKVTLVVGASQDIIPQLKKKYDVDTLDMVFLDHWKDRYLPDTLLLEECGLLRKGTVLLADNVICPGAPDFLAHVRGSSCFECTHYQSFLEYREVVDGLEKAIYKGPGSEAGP
Assay: COMT inhibition assay (HTRF, production of S-adenosyl homocysteine)
Assay type: biochemical
Conditions: recombinant human COMT, HTRF SAH production; MB-COMT or S-COMT not stated for Table 1
Outline: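 SAH formed from SAM (20 μM) measured by HTRF with SAH standard curve; pIC50 from 4-parameter fit. MB-COMT (M51A, HEK293F membranes, 62 ng/well): 1.5 μM dopamine, 40 min, 37° C.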

| SMILES | Activity range (pIC50, COMT inhibition) |
| --- | --- |
| COC(=O)N1CCN(S(=O)(=O)c2ccc(O)c3ncccc23)CC1 [Example 88, methyl 4-[(8-hydroxy-5-quinolyl)sulfonyl]piperazine-1-carboxylate] | +++ (a pIC50 of above about 7) |
| COCCCN1CCN(S(=O)(=O)c2ccc(O)c3ncccc23)CC1 [Example 89, 5-[4-(3-methoxypropyl)piperazin-1-yl]sulfonylquinolin-8-ol] | ++ (a pIC50 of from about great than 6 to 7) |
| N#Cc1ccccc1N1CCN(S(=O)(=O)c2ccc(O)c3ncccc23)CC1 [Example 90, 2-[4-[(8-hydroxy-5-quinolyl)sulfonyl]piperazin-1-yl]benzonitrile] | +++ (a pIC50 of above about 7) |
| O=S(=O)(c1ccc(O)c2ncccc12)N1CC2CCC(CC2)C1 [Example 91, 5-(3-azabicyclo[3.2.2]nonan-3-ylsulfonyl)quinolin-8-ol] | +++ (a pIC50 of above about 7) |
| O=S(=O)(c1ccc(O)c2ncccc12)N1CCN(c2ccccc2-c2ccccc2)CC1 [Example 92, 5-[4-(2-phenylphenyl)piperazin-1-yl]sulfonylquinolin-8-ol] | ++ (a pIC50 of from about great than 6 to 7) |
| Cc1ccc(C)c(N2CCN(S(=O)(=O)c3ccc(O)c4ncccc34)CC2)c1 [Example 93, 5-[4-(2,5-dimethylphenyl)piperazin-1-yl]sulfonylquinolin-8-ol] | ++ (a pIC50 of from about great than 6 to 7) |
| O=S(=O)(c1ccc(O)c2ncccc12)N1CCN(c2ccc(C(F)(F)F)cc2)CC1 [Example 94, 5-[4-[4-(trifluoromethyl)phenyl]piperazin-1-yl]sulfonylquinolin-8-ol] | ++ (a pIC50 of from about great than 6 to 7) |
| O=S(=O)(c1ccc(O)c2ncccc12)N1CCN(C(c2ccc(F)cc2)c2ccc(F)cc2)CC1 [Example 95, 5-[4-[bis(4-fluorophenyl)methyl]piperazin-1-yl]sulfonylquinolin-8-ol] | + (a pIC50 of from about 4.5 to 6) |
| O=S(=O)(c1ccc(O)c2ncccc12)N1CCN(c2ccc(F)cc2)CC1 [Example 96, 5-[4-(4-fluorophenyl)piperazin-1-yl]sulfonylquinolin-8-ol] | ++ (a pIC50 of from about great than 6 to 7) |
| O=S(=O)(c1ccc(O)c2ncccc12)N1CCN(c2cccc(Cl)c2Cl)CC1 [Example 97, 5-[4-(2,3-dichlorophenyl)piperazin-1-yl]sulfonylquinolin-8-ol] | ++ (a pIC50 of from about great than 6 to 7) |
| O=S(=O)(c1ccc(O)c2ncccc12)N1CCN(c2nsc3ccccc23)CC1 [Example 98, 5-[4-(1,2-benzothiazol-3-yl)piperazin-1-yl]sulfonylquinolin-8-ol] | ++ (a pIC50 of from about great than 6 to 7) |
| O=S(=O)(c1ccc(O)c2ncccc12)N1CC(Oc2ccc(OC(F)(F)F)cc2)C1 [Example 99, 5-[3-[4-(trifluoromethoxy)phenoxy]azetidin-1-yl]sulfonylquinolin-8-ol] | ++ (a pIC50 of from about great than 6 to 7) |
| Cc1cccc(N2CCN(S(=O)(=O)c3ccc(O)c4ncccc34)CC2)c1C [Example 100, 5-[4-(2,3-dimethylphenyl)piperazin-1-yl]sulfonylquinolin-8-ol] | ++ (a pIC50 of from about great than 6 to 7) |
| O=S(=O)(c1ccc(O)c2ncccc12)N1CCN(Cc2ccc(F)cc2)CC1 [Example 101, 5-[4-[(4-fluorophenyl)methyl]piperazin-1-yl]sulfonylquinolin-8-ol] | +++ (a pIC50 of above about 7) |
| O=S(=O)(c1ccc(O)c2ncccc12)N1CCCC(c2ccccc2)C1 (stereo not drawn) [Example 102, 5-[(3-phenyl-1-piperidyl)sulfonyl]quinolin-8-ol] | +++ (a pIC50 of above about 7) |
| CC(C)(C)OC(=O)N1CCN(S(=O)(=O)c2ccc(O)c3ncccc23)CC1 [Example 103, tert-butyl 4-[(8-hydroxy-5-quinolyl)sulfonyl]piperazine-1-carboxylate] | ++ (a pIC50 of from about great than 6 to 7) |
| O=S(=O)(c1ccc(O)c2ncccc12)N1CCNCC1 [Example 104, 5-piperazin-1-ylsulfonylquinolin-8-ol] | + (a pIC50 of from about 4.5 to 6) |
| CC1CN(C(=O)OC(C)(C)C)CCN1S(=O)(=O)c1ccc(O)c2ncccc12 (stereo not drawn) [Example 105, tert-butyl 4-[(8-hydroxy-5-quinolyl)sulfonyl]-3-methyl-piperazine-1-carboxylate] | ++ (a pIC50 of from about great than 6 to 7) |

| SMILES | Activity range (pIC50, COMT inhibition) |
| --- | --- |
| CC1CNCCN1S(=O)(=O)c1ccc(O)c2ncccc12 (stereo not drawn) [Example 106, 5-(2-methylpiperazin-1-yl)sulfonylquinolin-8-ol] | + (a pIC50 of from about 4.5 to 6) |
| Cc1ccc(S(=O)(=O)c2cc(I)c(O)c3ncccc23)cc1 [Example 107, 7-iodo-5-(p-tolylsulfonyl)quinolin-8-ol] | ++ (a pIC50 of from about great than 6 to 7) |
| Cc1ccc(S(=O)(=O)c2cc(Br)c(O)c3ncccc23)cc1 [Example 108, 7-bromo-5-(p-tolylsulfonyl)quinolin-8-ol] | ++ (a pIC50 of from about great than 6 to 7) |
| Cc1ccc(S(=O)(=O)c2cc(Cl)c(O)c3ncccc23)cc1 [Example 109, 7-chloro-5-(p-tolylsulfonyl)quinolin-8-ol] | +++ (a pIC50 of above about 7) |
| Cc1ccc(S(=O)(=O)c2cc(F)c(O)c3ncccc23)cc1 [Example 110, 7-fluoro-5-(p-tolylsulfonyl)quinolin-8-ol] | +++ (a pIC50 of above about 7) |
| Cc1cc(S(=O)(=O)N2CCCC2)c2cccnc2c1O [Example 111, 7-methyl-5-pyrrolidin-1-ylsulfonyl-quinolin-8-ol] | +++ (a pIC50 of above about 7) |
| O=S(=O)(c1cc(Cl)c(O)c2ncccc12)N1CCN(Cc2ccc(F)cc2)CC1 [Example 112, 7-chloro-5-[4-[(4-fluorophenyl)methyl]piperazin-1-yl]sulfonyl-quinolin-8-ol] | + (a pIC50 of from about 4.5 to 6) |
| O=S(=O)(c1cc(F)c(O)c2ncccc12)N1CCCC1 [Example 113, 7-fluoro-5-pyrrolidin-1-ylsulfonyl-quinolin-8-ol] | +++ (a pIC50 of above about 7) |
| Cc1cc(S(=O)(=O)N2CCN(Cc3ccc(F)cc3)CC2)c2cccnc2c1O [Example 114, 5-[4-[(4-fluorophenyl)methyl]piperazin-1-yl]sulfonyl-7-methyl-quinolin-8-ol] | + (a pIC50 of from about 4.5 to 6) |
| Cc1cc(S(=O)(=O)N(C)[C@H](C)c2ccccc2)c2cccnc2c1O [Example 115, 8-hydroxy-N,7-dimethyl-N-[(1R)-1-phenylethyl]quinoline-5-sulfonamide] | ++ (a pIC50 of from about great than 6 to 7) |
| Cc1cc(S(=O)(=O)N2C[C@@H](F)[C@H](F)C2)c2cccnc2c1O [Example 116, 5-[(3R,4R)-3,4-difluoropyrrolidin-1-yl]sulfonyl-7-methyl-quinolin-8-ol] | + (a pIC50 of from about 4.5 to 6) |
| C[C@H](c1ccccc1)N(C)S(=O)(=O)c1cc(Cl)c(O)c2ncccc12 [Example 117, 7-chloro-8-hydroxy-N-methyl-N-[(1R)-1-phenylethyl]quinoline-5-sulfonamide] | ++ (a pIC50 of from about great than 6 to 7) |
| C[C@H]1CCCN1S(=O)(=O)c1cc(Cl)c(O)c2ncccc12 [Example 118, 7-chloro-5-[(2S)-2-methylpyrrolidin-1-yl]sulfonyl-quinolin-8-ol] | ++ (a pIC50 of from about great than 6 to 7) |
| C[C@@H]1CCCN1S(=O)(=O)c1cc(Cl)c(O)c2ncccc12 [Example 119, 7-chloro-5-[(2R)-2-methylpyrrolidin-1-yl]sulfonyl-quinolin-8-ol] | ++ (a pIC50 of from about great than 6 to 7) |
| C[C@H](c1ccccc1)N(C)S(=O)(=O)c1cc(Br)c(O)c2ncccc12 [Example 120, 7-bromo-8-hydroxy-N-methyl-N-[(1R)-1-phenylethyl]quinoline-5-sulfonamide] | + (a pIC50 of from about 4.5 to 6) |
| O=S(=O)(c1cc(Br)c(O)c2ncccc12)N1CCN(Cc2ccc(F)cc2)CC1 [Example 121, 7-bromo-5-[4-[(4-fluorophenyl)methyl]piperazin-1-yl]sulfonyl-quinolin-8-ol] | + (a pIC50 of from about 4.5 to 6) |
| O=S(=O)(c1cc(F)c(O)c2ncccc12)N1CCN(Cc2ccc(F)cc2)CC1 [Example 122, 7-fluoro-5-[4-[(4-fluorophenyl)methyl]piperazin-1-yl]sulfonyl-quinolin-8-ol] | ++ (a pIC50 of from about great than 6 to 7) |
| C[C@H](c1ccccc1)N(C)S(=O)(=O)c1cc(F)c(O)c2ncccc12 [Example 123, 7-fluoro-8-hydroxy-N-methyl-N-[(1R)-1-phenylethyl]quinoline-5-sulfonamide] | +++ (a pIC50 of above about 7) |
